According to publication PMC11617484, “A Small Molecule Agonist of Krüppel-Like Factor 15 in Proteinuric Kidney Disease” (Journal of the American Society of Nephrology : JASN, 2024):

Target: T1, inhibitor of nuclear factor kappa-B kinase subunit beta (IKKβ) (Homo sapiens, UniProt O14920)
T1 construct: gene IKBKB
T1 sequence (O14920 1-756): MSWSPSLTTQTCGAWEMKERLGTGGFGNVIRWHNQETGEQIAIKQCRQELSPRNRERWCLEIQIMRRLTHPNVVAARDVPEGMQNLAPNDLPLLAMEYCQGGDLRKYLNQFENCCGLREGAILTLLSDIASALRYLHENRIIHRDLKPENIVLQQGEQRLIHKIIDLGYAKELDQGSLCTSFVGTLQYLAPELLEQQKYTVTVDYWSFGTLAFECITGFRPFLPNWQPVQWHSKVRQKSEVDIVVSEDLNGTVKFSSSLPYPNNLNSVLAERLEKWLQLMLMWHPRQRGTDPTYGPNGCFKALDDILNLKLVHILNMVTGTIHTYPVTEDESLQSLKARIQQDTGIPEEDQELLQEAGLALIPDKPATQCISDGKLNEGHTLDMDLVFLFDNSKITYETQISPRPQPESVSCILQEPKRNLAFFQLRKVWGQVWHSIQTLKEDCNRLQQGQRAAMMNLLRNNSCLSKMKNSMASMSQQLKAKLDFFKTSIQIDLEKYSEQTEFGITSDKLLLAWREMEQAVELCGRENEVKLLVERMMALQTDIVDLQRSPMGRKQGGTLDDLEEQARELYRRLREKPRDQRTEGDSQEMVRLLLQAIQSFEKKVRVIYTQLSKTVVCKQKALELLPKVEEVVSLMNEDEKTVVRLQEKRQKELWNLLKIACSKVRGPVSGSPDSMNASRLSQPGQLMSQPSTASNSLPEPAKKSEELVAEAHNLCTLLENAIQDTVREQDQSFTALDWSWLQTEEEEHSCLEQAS
Assay: IKKβ kinase activity assay (dose response, ATP dependence, M96V gatekeeper resistance); supported by cellular thermal shift assay in human podocytes
Assay type: biochemical

## CSc1ccc(NC(=O)Nc2ccc(C)nc2)cc1 [BT503]
  IC50: 163 nM
